In US20080269161A1, “Compositions and Methods Relating to Mitochondrial Hyperpolarization in Neurological Disease” (priority 2005, published 2008):
Entries after “also recorded” stand apart in the source; their conditions may differ. Where a name gives a salt, the structure may show the parent alone.

Tests used:
[1] = system: HIV-1 isolates resistant to other protease inhibitors; settings: read-out: ED50 dose for inhibiting viral replication; cited from earlier work
[2] = system: iNOS expression in human primary monocytes; assay: Tat-induced iNOS expression in primary monocytes; assay type: cell-based; settings: co-treatment with Tat
Protocol: (§1) The effect of adenosine receptor activation on Tat-induced upregulation of iNOS expression and NO release was then determined. […] In contrast, incubation of cells with 1 μM R-PIA (an adenosine A1 receptor agonist) had no effect on Tat-induced iNOS expression or NO release (FIG. 11), implicating the A2A and A3 receptor subtypes in this anti-inflammatory effect. ZM241385 (an A2AR antagonist) or MRS 1220 (an A3R antagonist) could prevent the anti-inflammatory effects of CGS21680 or IB-MECA, respectively.

[3] = system: Tat-stimulated TNF release in monocytes; assay: Tat-stimulated TNF release by primary monocytes (ELISA); assay type: cell-based, human; settings: Tat 100 nM, 4 h; CGS21680 1 μM; ATL313, ATL455 1-4 nM; hydrochloride
Protocol: Human primary monocytes were treated with Tat (100 nM) in the presence or absence of the A2AR agonist, CGS21680 (CGS; 1 μM) or the A2AR antagonist, ZM241385 (100 nM) for 4 h. TNF levels in culture supernatants were then quantitated by ELISA. Data represent mean+SEM of three replicates, from a single representative experiment
(§2) Primary monocytes were seeded in separate triplicate wells, and exposed independently to LPS (100 ng/ml), vehicle (NT) or Tat (100 nM) in the presence or absence of the A2AR agonist, CGS21680 (1 μM). After 4 h, cells were harvested. (A) TNF was measured in cell supernatants by ELISA Mean data values (±S.D.) are shown for the triplicate wells. (B) The corresponding cells from each well in panel A were lysed and subjected to qRTPCR analysis. Each cDNA sample was analyzed in quadruplicate. Assay results are presented as fold induction of gene expression, compared to untreated cells, after normalization to levels of GAPDH. Data represent mean±SD for each individual experimental replicate/well.
Human primary monocytes were treated with Tat (100 nM) in the presence or absence of the A2AR agonist, ATL313 (1-4 nM) or the A2AR antagonist, ATL455 (1-4 nM) for 4 h. TNF levels in culture supernatants were then quantitated by ELISA. […]
Human primary monocytes were treated with Tat (100 nM) in the presence or absence of the A2AR agonist, ATL313 (at the indicated doses) for 4 h. TNF levels in culture supernatants were then quantitated by ELISA. […]
(6) Primary monocytes. […] Results are compared for both populations, as well as purity (as assessed by immunophenotyping using CD14, CD68 and MHC class II).
The effect of an A2AR agonist on TNF release by primary human monocytes was also determined. Monocytes were stimulated with HIV-1 Tat, in the presence or absence of the A2AR agonist CGS21680 or the A2AR antagonist ZM251385 and TNF release was then measured in cell culture supernatants using an ELISA assay.
Quantitative real-time PCR analysis was used to measure TNF message levels in Tat-treated monocytes. […]

[4] = system: rat cerebellar granule neurons (CGNs); assay: Tat-induced apoptosis of cerebellar granule neurons (TUNEL); assay type: cell-based; settings: Tat 500 nM, 48 h
Protocol: (§3) CGNs were exposed to HIV-1 Tat (Tat, 500 nM), or vehicle alone (NT), in the presence or absence of the A2A antagonist, ZM241385. After 48 h, cultures were analyzed for the percentage of apoptotic cells using the TUNEL assay. Data represent mean±SEM for one experiment that was performed in triplicate; data are representative of two independent experiments.
as §3, with “(No Tat),” for “(NT),”, “A2AR antagonists, ATL455 and ZM241385, or the A2AR agonists ATL313 and CGS21680.” for “A2A antagonist, ZM241385.”
(1) Primary rat cerebellar granule neurons (CGNs). CGNs represent a highly homogenous population of primary neurons which are susceptible to Tat and PAF-mediated cell killing and have been used in many of previous studies. CGN cells are isolated according to published procedures [Maggirwar, S. B., et al. 1999. J Neurochem 73:578-86] [Tong, N., et al. 2001. Eur J Neurosci 13:1913-22].
78(4): p. […] 22(6): p. 1102-6].
Primary rat cerebellar granule neurons (CGNs) were exposed to a neurotoxic concentration of HIV-1 Tat, in the presence or absence of an A2AR antagonist (ZM241385). […] It is important to note that CGNs express adenosine A2A receptors [Vacas, J., et al. 2003. Brain Res 992:272-280].
Primary cultures of rat cerebellar granule neurons (CGNs) were exposed to HIV-Tat ([…]) alone or together with increasing doses of the A2AR antagonist ATL-455 or A2A agonists ATL313 or CGS21680. Cells are treated with the test compounds for defined time intervals of up to 48 hours (1, 4, 8, 24, and 48 hours).

[5] = system: TNF and IL1 mRNA in primary human monocytes; assay: qRTPCR of inflammatory gene expression in Tat-exposed monocytes; assay type: cell-based; settings: Tat 100 nM, CGS21680 1 μM, 4 h
Protocol: as §2
Quantitative real-time PCR analysis was used to measure TNF message levels in Tat-treated monocytes. Primary human monocytes were prepared using CD14^+ immunomagnetic selection, and then exposed to LPS or to HIV-1 Tat for 4 hours, in the presence or absence of the A2AR agonist CGS21680. Culture supernatants were tested for TNF levels by ELISA assay (FIG. 13A), and RNA was extracted from cell pellets for quantitative reverse-transcription PCR (qRTPCR) analysis (FIG. 13B).

[6] = system: NO release by human primary monocytes; assay: Tat-induced nitric oxide release by primary monocytes (Griess reaction); assay type: cell-based; settings: co-treatment with Tat, 8 h; R-PIA 1 μM
Protocol: Human primary monocytes were treated with Tat in the presence or absence of the indicated adenosine receptor agonists for 8 h, and nitric oxide levels in the culture medium of the cells were then quantitated using the Griess reaction (Active Motif). Data represent mean+SEM of three experiments.
as §1

rat cortical neurons = assay type: cell-based
Protocol: Measuring production of intracellular ROS: Generation of ROS in response to Tat and PAF is assessed with the oxidizable dye indicator 5-(and-6)-chloromethyl-2′, 7′-dichlorodihydrofluorescein diacetate, acetyl ester (CM—H2DCFDA, abbreviated as “DCF”) (Molecular Probes, Eugene, Oreg.). Upon entering the cell by passive diffusion, the acetate groups are cleaved by intracellular esterases, and the thiol-reactive chloromethyl group binds to intracellular thiols, rendering the CM—H2DCF product trapped within the cell. […] [manufacturer's data] leaves the final fluorescent product CM-DCF, which is then imaged (excitation: 485, emission: 538) and quantitated in the same fashion as TMRM (above) as an indicator of relative levels of ROS in the culture.

rodent cortical cultures = assay: FM1-43 vesicular uptake in cortical neuronal cultures; assay type: cell-based, rat; settings: all doses of Tat
Protocol: (C) Moreover, activity dependent FM1-43 release by KC1 depolarization preferentially reduces the punctate vesicular labeling versus background signal. (D) In ≦14 and ≧14 day old primary neurons, 2.5 μg/ml Tat and 4.25 μg/ml Tat induces an increase in spontaneous activity dependent vesicular uptake, an effect that is both dose and culture age dependent.
Cortical neuronal cultures were treated with Tat or cPAF for varying periods of time as an in vitro model of pre-synaptic nerve terminal function, using the lipophilic, fluorescent styryl dye N-(3-triethylammoniumpropyl)-4-(4-(dibutylamino)styryl) pyridinium dibromide (FM1-43), which binds to synaptic vesicle membranes and is taken up into nerve terminals during normal activity (i.e., synaptic vesicle recycling). Fluorescent signal can be quantified to number of neurons, and after chemical depolarization with high concentrations of KC1, fluorescent signal is abolished, giving an index of nerve terminal activity in real-time. […] 68(7): p. 4628-35]. […]
FM1-43 uptake assay: Total spontaneous activity dependent vesicular uptake was assessed using the lipophilic styryl dye N-(3-triethylammoniumpropyl)-4-(4-(dibutylamino)styryl) pyridinium dibromide (FM1-43). […] Upon subsequent exocytosis, the vesicle fuses with the membrane, releasing its contents, and the FM1-43 dissociates back into the extracellular solution and loses its fluorescence. […]

Q: For `COC(=O)N[C@H](C(=O)N[C@@H](Cc1ccccc1)[C@@H](O)CN(Cc1ccc(-c2ccccn2)cc1)NC(=O)[C@@H](NC(=O)OC)C(C)(C)C)C(C)(C)C` [Atazanvir, Atazanavir], which EC50 [1] is on record?
A: Its EC50 is 2 to 8 nM.

Q: With `CCNC(=O)[C@H]1O[C@@H](n2cnc3c(N)nc(NCCc4ccc(CCC(=O)O)cc4)nc32)[C@H](O)[C@@H]1O` [CGS21680, 4-[2-[[6-Amino-9-(N-ethyl-b-D-ribofuranuronamidosyl)-9H-purin-2yl]amino]ethyl]benzenepropanoic acid hydrochloride] as the compound, how does the “inhibition of Tat-induced iNOS expression” value [2] read?
A: The value was “roughly 50%”.

Q: What about the “effect on Tat-induced monocyte activation (TNF release)” value [3] of the same compound?
A: The value was “abrogated; also recorded: strongly suppressed; also recorded: opposed”.

Q: And the “effect on Tat-induced neuronal apoptosis” value [4]?
A: The value was “did not result in an increase in cell death”.

Q: And the “effect on IL1 mRNA levels” value [5]?
A: Its value is “little effect”.

Q: What about the “effect on TNF transcription” value [5] of the same compound?
A: The value was “strongly suppressed”.

Q: And the “effect on Tat-induced NO secretion” value [6]?
A: Its value is “complete abrogation”.

Q: For `OO` [H202, hydrogen peroxide], which “increase in ROS production” value (rat cortical neurons) is on record?
A: The value was 90%.

Q: Which “effect on Tat-induced increase in FM1-43 uptake” value (rodent cortical cultures) does the source give for `C[C@H](CCC(=O)NCCS(=O)(=O)O)[C@H]1CC[C@H]2[C@@H]3[C@@H](O)C[C@@H]4C[C@H](O)CC[C@]4(C)[C@H]3CC[C@]12C` [TUDCA, tauroursodeoxycholic acid] here?
A: The value was “completely blocked; also recorded: completely eliminated”.
